The values that follow are results of earlier work, collected in US20140296485A1, “ANIONIC DISPLACER MOLECULES FOR HYDROPHOBIC DISPLACEMENT CHROMATOGRAPHY” (SACHEM, INC., priority 2011, published 2014).

The conditions of this data set: pH-buffering compounds.

Molecules are shown by their SMILES.

As for `CC(C)(CC(=O)O)CC(=O)O` [3,3-dimethylglutaric acid], the “pKa of pH buffer” value is 5.9.

For `O=C(O)CCC(=O)O` [succinic acid], the “pKa of pH buffer” value is reported as 5.2.
